Source: patent publication US20250114383A1, “ADMINISTRATION OF A P[…] BY I[…]” (RESET PHARMACEUTICALS, INC., priority 2022, published 2025)

Legend:
[1] = Solubility assessment in excipients and vehicles; type: physicochemical
[2] = Two-compartment IV PK model fitted to published human bolus psilocybin IV data; conditions: psilocin after 1 mg psilocybin IV, fitted estimate
Procedure: All analysis was performed using the software R and RStudio, with models being defined using analytical and ODE solutions.
Systemic PK parameters were derived for published human bolus psilocybin IV data and human infusion simulations were performed over a range of doses to identify infusion regimens that achieved the target profile.
Human IV PK data for psilocin after psilocybin was administered was taken from Hasler et al. “Determination of psilocin and 4-hydroxyindole-3-acetic acid in plasma by HPLC-ECD and pharmacokinetic profiles of oral and intravenous psilocybin in man”. Pharm Acta Helv. 1997 June; 72(3):175-84. Model selection was performed by assessing visual fit to data and the respective model AIC's of a one compartment and two compartment IV PK model. These systemic human PK parameters were then used for human infusion simulations by simulating the PK profiles over a range of doses. The effect of two infusion rates, a faster followed by slower infusion rate was also investigated.
Pharm Acta Helv. 1997 June; 72(3):175-84. It is assumed that the generation of psilocin is instantaneous and complete once psilocybin is absorbed.
An IV two compartment model best described the IV data from FIG. 2. A two-compartment model gave a good description of the raw data capturing the Cmax and terminal phase well, FIG. 3. […]

SMILES	solubility ([1]; in DMSO and NMP)	solubility as a function of pH ([1]; initial trials, 30 mg/g in aqueous vehicles)	k12 [2] [min⁻¹]	k21 [2] [min⁻¹]	solubility ([1]; non-micronised, in all the excipients tested)
CN(C)CCc1c[nH]c2cccc(O)c12 [psilocin, 4-hydroxy-N,N-dimethyltryptamine]	good solubility	higher solubility at acidic pH	0.176	0.0489	
CN(C)CCc1c[nH]c2cccc(OP(=O)(O)O)c12 [psilocybin, [3-(2-dimethylaminoethyl)-1H-indol-4-yl]dihydrogen phosphate]					poor solubility
